Laboratory results as given in patent US20090326007A1, “Compounds and methods for modulating sir2 protein activity” (priority 2007, published 2009).
“Also recorded” adds a separate entry of the source. Where two headings read alike, the source gives them in different places. *1 amine or outer side, *2 acyl side, *3 side chain or, on linkers, in order; H or OH if unused. Where a SMILES comes first, the peptide text is derived from it. Bridges are numbered along the chain shown (N, C = ends). [ ]: non-standard residue; d: D form. X1 = CC(C)CCCCCCCCC[C@H](CC(=O)[*:1])O[*:2]

Assays:
[1] = target: T1, Hst2 (Saccharomyces cerevisiae, UniProt P53686); experiment: IC50 determination, fluorigenic deacetylase assay, Hst2
Description: (§1) IC50 Determination. […] The dose-response curves were then fit to one-site competition or sigmoidal-dose response curves as appropriate in [sequence] PRISM (GraphPad Software, La Jolla, Calif.) and the IC50 was determined. Three independent IC50 measurements were performed for each compound and the average and standard deviation are reported.
The resulting deacetylase activity for the three experiments was averaged and reported as a percentage relative to control wells containing no inhibitor.

[2] = target: T1, Hst2; experiment: SAR analysis, fluorigenic assay at 50 and 500 μM; format: biochemical; settings: FIG. 2, 50 μM and 500 μM compound
From the text: Structure Activity Relationship (SAR) Analysis.

[3] = target: T1, Hst2; experiment: Competition assay (inhibition mode versus NAD+ and acetyl-lysine substrate); format: biochemical
Description: Competition Assay. […] The fluorigenic assay described above was used with a fixed enzyme concentration of 1 μM. When competition with NAD^+ was being tested, the FLUOR DE LYS-SIRT1 deacetylase substrate was held at a constant concentration of 100 μM and the NAD^+ was titrated from ⅓-5× KmNAD+ (5-80 μM). […] The inhibitors were titrated from ˜½-several times their estimated Ki as indicated. The reaction time was 15 minutes, and each condition was tested in duplicate. The Km, kcat and kcat/Km values were determined by direct fit of the data in SIGMAPLOT (Systat Software, Point Richmond, Calif.) to the Michealis-Menten equation. The Ki and Kis (the slope and intercept inhibition constants, respectively) and the competition type were also determined by a direct fit in SIGMAPLOT to both partial and full competitive, noncompetitive, uncompetitive and mixed competition models. Best-fit models were determined by several statistical methods including R^2, AICs and Sy.x as well as empirical evaluation of α and β values.
To determine the mechanism of inhibition of the compounds identified by HTS and to gain insight as to where these compounds may bind to the enzyme, inhibition modes were determined by varying each of the substrates with the other maintained at a fixed, saturating concentration (Table 11).

[4] = target: T2, full-length human SIRT1 (Homo sapiens, UniProt Q96EB6); experiment: IC50 determination, fluorigenic deacetylase assay, FL SIRT1
T2 sequence (Q96EB6 1-747): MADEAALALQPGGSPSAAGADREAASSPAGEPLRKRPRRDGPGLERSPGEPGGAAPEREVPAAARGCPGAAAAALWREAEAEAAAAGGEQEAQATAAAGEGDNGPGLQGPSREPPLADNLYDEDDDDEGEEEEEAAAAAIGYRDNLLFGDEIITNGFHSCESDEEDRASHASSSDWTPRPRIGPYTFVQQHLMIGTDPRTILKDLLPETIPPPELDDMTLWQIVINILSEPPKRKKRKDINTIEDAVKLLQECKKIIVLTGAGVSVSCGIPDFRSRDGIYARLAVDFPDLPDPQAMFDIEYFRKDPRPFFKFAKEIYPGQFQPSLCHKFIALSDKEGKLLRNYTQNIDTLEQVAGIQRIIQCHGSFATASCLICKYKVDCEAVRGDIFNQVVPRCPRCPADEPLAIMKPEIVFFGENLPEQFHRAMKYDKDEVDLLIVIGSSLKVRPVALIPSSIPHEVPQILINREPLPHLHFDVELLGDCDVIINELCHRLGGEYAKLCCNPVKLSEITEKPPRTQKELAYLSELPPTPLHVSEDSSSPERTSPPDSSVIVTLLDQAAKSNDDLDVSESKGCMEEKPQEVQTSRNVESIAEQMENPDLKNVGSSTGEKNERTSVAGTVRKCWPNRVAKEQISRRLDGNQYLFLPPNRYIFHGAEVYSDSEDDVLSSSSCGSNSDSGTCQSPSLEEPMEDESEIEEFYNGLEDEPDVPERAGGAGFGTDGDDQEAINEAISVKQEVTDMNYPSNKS
Description: Cells were harvested and lysed by sonication in buffer containing 50 mM Tris, pH 7.5, 200 mM NaCl, 5 mM imidizole, 10 mM β-mercaptoethanol (BME) and 0.1 mg/mL PMSF. Soluble FL SIRT1 was purified by Ni-NTA (Qiagen, Valencia, Calif.) in a buffer containing 50 mM Tris, pH 7.5, 300 mM NaCl, 10 mM BME, 5% glycerol and 30-600 mM imidizole followed by SUPERDEX-200 gel filtration in buffer containing 50 mM Tris, pH 7.5, 150 mM NaCl, and 10 mM BME. FL SIRT1 eluted between the 670 kDa and 158 kDa globular protein standards. Since SIRT1 is known to aggregate after several days at 4° C., the protein was aliquoted and frozen at −80° C. for use in fluorigenic assays.
as §1

[5] = target: T3, human SIRT3 (Homo sapiens, UniProt Q9NTG7); experiment: Inhibition assay against human SIRT3 (fluorigenic)
T3 sequence (Q9NTG7 1-399): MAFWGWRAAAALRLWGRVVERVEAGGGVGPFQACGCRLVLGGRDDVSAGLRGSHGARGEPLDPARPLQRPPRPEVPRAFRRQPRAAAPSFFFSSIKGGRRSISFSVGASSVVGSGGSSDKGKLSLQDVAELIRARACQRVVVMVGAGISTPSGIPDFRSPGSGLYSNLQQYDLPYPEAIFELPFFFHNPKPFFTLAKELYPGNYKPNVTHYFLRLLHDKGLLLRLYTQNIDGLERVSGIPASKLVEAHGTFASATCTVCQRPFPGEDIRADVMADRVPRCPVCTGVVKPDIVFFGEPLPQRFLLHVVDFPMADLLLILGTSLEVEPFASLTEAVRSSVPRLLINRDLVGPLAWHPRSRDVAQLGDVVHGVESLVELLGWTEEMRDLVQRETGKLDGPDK
Description: (§2) Human recombinant SIRT3 was purchased from Enzo Life Sciences.
(§3) Inhibition Assay Against Human SIRT2 and SIRT3. […] Two independent measurements were performed for each compound and the average and standard deviation are reported.

[6] = target: T4, human SIRT2 (Homo sapiens, UniProt Q8IXJ6); experiment: Inhibition assay against human SIRT2 (fluorigenic)
T4 sequence (Q8IXJ6 1-352 isoform Q8IXJ6-2): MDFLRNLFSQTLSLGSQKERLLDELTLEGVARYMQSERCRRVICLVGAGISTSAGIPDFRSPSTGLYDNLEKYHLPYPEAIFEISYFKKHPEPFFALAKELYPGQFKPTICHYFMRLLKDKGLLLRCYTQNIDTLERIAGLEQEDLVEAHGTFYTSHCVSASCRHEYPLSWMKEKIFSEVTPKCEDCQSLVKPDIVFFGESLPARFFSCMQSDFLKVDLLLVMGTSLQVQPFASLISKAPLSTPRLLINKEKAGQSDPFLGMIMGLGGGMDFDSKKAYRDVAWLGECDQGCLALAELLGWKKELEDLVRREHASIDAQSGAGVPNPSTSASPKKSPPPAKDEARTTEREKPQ
Description: as §2, §3

[7] = read-out: Hst2 IC50, Table 5, 160 μM NAD+, 100 μM substrate, 1 μM Hst2, 15 min
[8] = substrate NAD+ varied, acetyl-lysine substrate 100 μM
[9] = substrate acetyl-lysine varied, NAD+ 160 μM
[10] = substrate NAD+ varied, read-out: Ki
[11] = substrate acetyl-lysine varied, read-out: Ki
[12] = read-out: SIRT1 IC50, Table 5, 240 μM NAD+, 200 μM substrate, 1 μM FL SIRT1, 15 min
[13] = 50 μM compound, relative to control without inhibitor

T1 sequence (P53686 1-294): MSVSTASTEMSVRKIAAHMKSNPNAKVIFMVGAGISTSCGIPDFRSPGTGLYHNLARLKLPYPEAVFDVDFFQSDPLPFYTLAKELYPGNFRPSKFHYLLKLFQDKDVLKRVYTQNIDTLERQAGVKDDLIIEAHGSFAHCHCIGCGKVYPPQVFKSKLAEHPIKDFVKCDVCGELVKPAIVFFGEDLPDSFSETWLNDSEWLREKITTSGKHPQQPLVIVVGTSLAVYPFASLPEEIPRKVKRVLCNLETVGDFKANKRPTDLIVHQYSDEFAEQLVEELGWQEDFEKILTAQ

## O=C(O)CCN1C(=O)c2cc(Cl)c(Cl)cc2C1=O [Compound 39008]
[1]; Table 10, Hst2
  IC50: No Inh.

## [Zn+2] [Zn^2+]
[2]
  inhibition of the Hst2 deacetylase reaction by metal ions (in words): inhibitors

## CC(C)C(=O)CCN1C(=O)c2ccccc2C1=O [Compound 04265]
[1]; Table 10, Hst2
  IC50: No Inh.

## Cc1ccc(C(=O)Nc2ccc(S(=O)(=O)O)c3cc(S(=O)(=O)O)cc(S(=O)(=O)O)c23)cc1NC(=O)c1cccc(NC(=O)Nc2cccc(C(=O)Nc3cc(C(=O)Nc4ccc(S(=O)(=O)O)c5cc(S(=O)(=O)O)cc(S(=O)(=O)O)c45)ccc3C)c2)c1 [Suramin (8), Suramin, reference compound]
[1]; [7]
  IC50: 240 ± 70 µM

## O=C(O)CCN1C(=O)c2ccc(-c3nc4ccccc4c(=O)o3)cc2C1=O [Compound 47054]
[1]; Table 10, Hst2
  IC50: No Inh.

## [Co+2] [Co^2+]
[2]
  inhibition of the Hst2 deacetylase reaction by metal ions (in words): inhibitors

## [Cu+] [Cu^1+]
[2]
  inhibition of the Hst2 deacetylase reaction by metal ions (in words): inhibited Hst2 to similar extents

## [Ca+2] [Ca^2+]
[2]
  inhibition of the Hst2 deacetylase reaction by metal ions (in words): are not

## CC(NC(=O)c1ccccc1/N=C/c1c(O)ccc2ccccc12)c1ccccc1 (stereo not drawn) [Sirtinol (2), Sirtinol, reference compound]
[1]; [7]
  IC50: 48 ± 11 µM

## [Ni+2] [Ni^2+]
[2]
  inhibition of the Hst2 deacetylase reaction by metal ions (in words): inhibitors

## O=C1c2ccccc2C(=O)N1CCBr [Compound 91032]
[1]; Table 10, Hst2
  IC50: No Inh.

## CN(C)CCCCC(=O)Nc1ccc(NC(=S)NC(=O)c2ccc(C(C)(C)C)cc2)cc1 [Tenovin-6 (5), Tenovin-6, reference compound]
[1]; [7]
  IC50: > 600 µM

## S=c1ccccn1[O][Zn][O]n1ccccc1=S [Compound 11b, zinc pyrithione]
[3]; Ki, substrate NAD+ varied
  Ki: 0.26 ± 0.08 µM
[3]; Ki, substrate acetyl-lysine varied
  Ki: 0.7 ± 0.1 µM
[3]; substrate NAD+ varied
  kcat: 0.0145 ± 0.00083 s⁻¹
[3]; [8]
  Inhibition Mechanism: fully mixed
[3]; substrate acetyl-lysine varied
  kcat: 0.0217 ± 0.0033 s⁻¹
[3]; [9]
  Inhibition Mechanism: fully non-competitive; also recorded: NC (full)
[3]; with respect to NAD+
  α (mixed inhibition model): 2.2
[1]
  IC50: 0.65 ± 0.05 µM
  IC50 values (range in words): sub-micromolar
[4]
  IC50: 2.7 ± 0.2 µM

## C[S+]([O-])CCC(C(=O)O)N1C(=O)c2ccccc2C1=O (stereo not drawn) [Compound 0032]
[1]; Table 10, Hst2
  IC50: No Inh.

## O=c1[nH]c(=S)[nH]c(-c2ccccc2)c1Cc1c(O)ccc2ccccc12 [Cambinol (4), Cambinol, reference compound]
[1]
  IC50: > 1000 µM

## [Cd+2] [Cd^2+]
[2]
  inhibition of the Hst2 deacetylase reaction by metal ions (in words): inhibitors

## CC(=O)[O][Cd][O]C(C)=O [Compound 11a, cadmium acetate]
[1]
  IC50: 1 ± 0.2 µM
[1]; Table 5
  IC50 values (range in words): sub-micromolar

## CC(C)CCCCCCCCC[C@@H]1CC(=O)N[C@@H](CCC(=O)O)C(=O)N[C@@H](CC(C)C)C(=O)N[C@H](CC(C)C)C(=O)N[C@@H](C(C)C)C(=O)N[C@@H](CC(=O)O)C(=O)N[C@H](CC(C)C)C(=O)N[C@@H](CC(C)C)C(=O)O1 [Surfactin (7), Surfactin, reference compound] (EL[dL]VD[dL]L; linker N-C via X1)
[1]
  IC50: > 700 µM
[4]
  IC50: > 600 µM

## [Mg+2] [Mg^2+]
[2]
  inhibition of the Hst2 deacetylase reaction by metal ions (in words): are not

## hexachlorophene [Compound 14a]
[3]; substrate NAD+ varied
  kcat: 0.00933 ± 0.0013 s⁻¹
[3]; [8]
  Inhibition Mechanism: fully non-competitive; also recorded: NC (full)
[3]; [10]
  Ki: 3.9 ± 0.7 µM
[3]; substrate acetyl-lysine varied
  kcat: 0.0222 ± 0.0015 s⁻¹
[3]; [9]
  Inhibition Mechanism: fully mixed
[3]; [11]
  Ki: 2.5 ± 1 µM
[3]; with respect to the acetyl-lysine substrate
  α (mixed inhibition model): 13.4
[1]; Table 4, Hst2
  IC50: 12.5 ± 0.6 µM
[1]; Table 5
  IC50 values (range in words): low micromolar
[1]; [7]
  IC50: 12.5 ± 0.6 µM
[4]; [12]
  IC50: 34 ± 10 µM
[5]; [13]
  percent of residual enzyme activity, SIRT3: 39.5 ± 1.6%
[5]; read-out: apparent IC50, SIRT3, estimated from single concentration
  potency estimated from few doses: < 50 µM
[6]; [13]
  percent of residual enzyme activity, SIRT2: 18.5 ± 0.8%
[6]; read-out: apparent IC50, SIRT2, estimated from single concentration
  potency estimated from few doses: < 50 µM

## [Hg+2] [Hg^2+]
[2]
  inhibition of the Hst2 deacetylase reaction by metal ions (in words): inhibitors

## O=C1CCc2c(ccc3ccccc23)O1 [Splitomycin (3), Splitomycin, reference compound]
[1]; [7]
  IC50: > 600 µM

## O=C(O)CCCN1C(=O)c2ccccc2C1=O [Compound 427032]
[1]; Table 10, Hst2
  IC50: No Inh.

## O=C(O)CCN1Cc2ccccc2C1=O [Compound 13a, 3-(1-Oxo-1,3-dihydro-isoindol-2-yl)-propionic acid]
[3]; substrate NAD+ varied
  kcat: 0.0122 ± 0.00217 s⁻¹
[3]; [8]
  Inhibition Mechanism: fully non-competitive; also recorded: NC (full)
[3]; [10]
  Ki: 30 ± 6 µM
[3]; substrate acetyl-lysine varied
  kcat: 0.0167 ± 0.0017 s⁻¹
[3]; [9]
  Inhibition Mechanism: fully non-competitive; also recorded: NC (full)
[3]; [11]
  Ki: 39 ± 7 µM
[1]; Table 5
  IC50 values (range in words): low micromolar
[4]; [12]
  IC50: 80 ± 5 µM
[5]; 50 or 100 μM compound
  inhibitory activity against human SIRT3 (in words): only weak inhibitory activity
[5]; read-out: percent of residual enzyme activity, SIRT3
  remaining activity at 50 µM: 91 ± 4.3%
[6]; 50 or 100 μM compound
  inhibitory activity against human SIRT2 (in words): only weak inhibitory activity
[6]; read-out: percent of residual enzyme activity, SIRT2
  remaining activity at 50 µM: 89 ± 1.8%

## Cn1cc(C2=C(c3cn(CCCSC(=N)N)c4ccccc34)C(=O)NC2=O)c2ccccc21 [Ro 31-8220 (6), Ro 31-8220, reference compound]
[1]; [7]
  IC50: 20 ± 0.9 µM

## [Fe+2] [Fe^2+]
[2]
  inhibition of the Hst2 deacetylase reaction by metal ions (in words): inhibited Hst2 to similar extents

## Nc1ccc2c(c1)C(=O)N(CCC(=O)O)C2 [Compound 42071]
[1]; Table 10, Hst2
  IC50: No Inh.
